The values below come from ChEMBL document CHEMBL1795292, “Discovery of molecules for the treatment of neuropathic pain: synthesis, antiallodynic and antihyperalgesic activities of 5-(4-nitrophenyl)furoic-2-acid hydrazones” (2011).

Calls of active or inactive are those of the source. No cut-off for these calls is given here.

Test [1] has as its system Rattus norvegicus. Briefly: Antiallodynic activity in Wistar albino rat chronic constriction injury-induced neuropathic pain model assessed as reversal of spontaneous pain response measured as withdrawal duration at 100 mg/kg, ip. Type of test: functional. The settings on record: route intraperitoneal.
Test [2] relates to Rattus norvegicus. Put plainly: Antiallodynic activity in Wistar albino rat chronic constriction injury-induced neuropathic pain model assessed as attenuation of mechanical allodynia measured as paw withdrawal latency at 100 mg/kg, ip. Format: functional. The settings on record: route intraperitoneal.
Test [3] deals with Rattus norvegicus. Put plainly: Antiallodynic activity in Wistar albino rat chronic constriction injury-induced neuropathic pain model assessed as attenuation of cold allodynia measured as paw withdrawal duration at 100 mg/kg, ip. Type of test: functional. The settings on record: route intraperitoneal.
Test [4] deals with Rattus norvegicus. Put plainly: Antiallodynic activity in Wistar albino rat chronic constriction injury-induced neuropathic pain model assessed as reversal of spontaneous pain response after 0.5 hrs at 100 mg/kg, ip. Format: functional, organism-based. Details: dose 100 mg/kg.
Test [5] concerns Rattus norvegicus. Put plainly: Antihyperalgesic activity in Wistar albino rat chronic constriction injury-induced neuropathic pain model assessed as attenuation of mechanical pinkprick-induced hyperalgesia after 1.5 at 100 mg/kg, ip. Format: functional, organism-based. Also on record: dose 100 mg/kg.
Test [6] concerns Rattus norvegicus. Briefly: Antiallodynic activity in Wistar albino rat chronic constriction injury-induced neuropathic pain model assessed as attenuation of mechanical allodynia after 0.5 hrs at 100 mg/kg, ip. Format: functional, organism-based. Also on record: dose 100 mg/kg.
For test [7], the system named is Rattus norvegicus. Put plainly: Antiallodynic activity in Wistar albino rat chronic constriction injury-induced neuropathic pain model assessed as reversal of spontaneous pain response at 100 mg/kg, ip. Format: functional, organism-based. Also on record: dose 100 mg/kg.
For test [8], the system named is Rattus norvegicus. Briefly: Antiallodynic activity in Wistar albino rat chronic constriction injury-induced neuropathic pain model assessed as attenuation of cold allodynia at 100 mg/kg, ip. Also on record: dose 100 mg/kg. Type of test: functional, organism-based.
Test [9] concerns Rattus norvegicus. Briefly: Antihyperalgesic activity in Wistar albino rat chronic constriction injury-induced neuropathic pain model assessed as attenuation of mechanical pinkprick-induced hyperalgesia after 0.5 to 1.5 at 100 mg/kg, ip. Format: functional, organism-based. Also on record: dose 100 mg/kg.
Test [10] has as its system Rattus norvegicus. Briefly: Antiallodynic activity in Wistar albino rat chronic constriction injury-induced neuropathic pain model assessed as reversal of spontaneous pain response up to 2 hrs at 100 mg/kg, ip. Details: dose 100 mg/kg. Format: functional, organism-based.
Test [11] has as its system Rattus norvegicus. Briefly: Antiallodynic activity in Wistar albino rat chronic constriction injury-induced neuropathic pain model assessed as reversal of spontaneous pain response up to 1 hr at 100 mg/kg, ip. Format: functional, organism-based. Details: dose 100 mg/kg.
In test [12] the test system is Rattus norvegicus. Put plainly: Antiallodynic activity in Wistar albino rat chronic constriction injury-induced neuropathic pain model assessed as attenuation of cold allodynia after 0.5 to 1 hr at 100 mg/kg, ip. Also on record: dose 100 mg/kg. Format: functional, organism-based.
Test [13] has as its system Rattus norvegicus. Put plainly: Antiallodynic activity in Wistar albino rat chronic constriction injury-induced neuropathic pain model assessed as attenuation of cold allodynia after 1 to 2.5 hrs at 100 mg/kg, ip. Format: functional, organism-based. Also on record: dose 100 mg/kg.
Test [14] deals with Rattus norvegicus. Put plainly: Antihyperalgesic activity in Wistar albino rat chronic constriction injury-induced neuropathic pain model assessed as attenuation of mechanical pinkprick-induced hyperalgesia up to 2.5 at 100 mg/kg, ip. Format: functional, organism-based. Also on record: dose 100 mg/kg.
Test [15] relates to Rattus norvegicus. Put plainly: Antiallodynic activity in Wistar albino rat chronic constriction injury-induced neuropathic pain model assessed as reversal of spontaneous pain response at 100 mg/kg, ip relative to gabapentin. Type of test: functional. The settings on record: route intraperitoneal.
Test [16] concerns Rattus norvegicus. Put plainly: Antiallodynic activity in Wistar albino rat chronic constriction injury-induced neuropathic pain model assessed as attenuation of mechanical allodynia at 100 mg/kg, ip. Details: dose 100 mg/kg. Type of test: functional, organism-based.
Test [17] has as its system Rattus norvegicus. Put plainly: Antiallodynic activity in Wistar albino rat chronic constriction injury-induced neuropathic pain model assessed as reversal of spontaneous pain response after 1 hrs at 100 mg/kg, ip. Format: functional, organism-based. Details: dose 100 mg/kg.
Test [18] has as its system Rattus norvegicus. Put plainly: Antiallodynic activity in Wistar albino rat chronic constriction injury-induced neuropathic pain model assessed as attenuation of cold allodynia at 100 mg/kg, ip relative to carbamazepine and lamotrigine. Format: functional. The settings on record: route intraperitoneal.
Test [19] concerns Rattus norvegicus. Put plainly: Antihyperalgesic activity in Wistar albino rat chronic constriction injury-induced neuropathic pain model assessed as attenuation of mechanical pinkprick-induced hyperalgesia after 0.5 to 1 at 100 mg/kg, ip. Type of test: functional, organism-based. Also on record: dose 100 mg/kg.
The test system of test [20] is Rattus norvegicus. Put plainly: Antiallodynic activity in Wistar albino rat chronic constriction injury-induced neuropathic pain model assessed as attenuation of mechanical allodynia after 1.5 hrs at 100 mg/kg, ip. Format: functional, organism-based. Also on record: dose 100 mg/kg.

`O=C(N/N=C/c1ccc([N+](=O)[O-])o1)c1ccc(-c2ccc([N+](=O)[O-])cc2)o1`: the Time in the test with Rattus norvegicus [1], in the test with Rattus norvegicus [2] and in the test on Rattus norvegicus [3] was 2.5 h each time. The outcome with Rattus norvegicus [4] and in the test with Rattus norvegicus [5] was Active.
As for `O=C(N/N=C/c1ccccc1)c1ccc(-c2ccc([N+](=O)[O-])cc2)o1`, the Time in the test with Rattus norvegicus [1] worked out at 2.5 h; in the test on Rattus norvegicus [2], 2 h; in the test with Rattus norvegicus [3] it was 2.5 h. In addition, the result in the test on Rattus norvegicus [4] was Active. Further, the outcome in the test on Rattus norvegicus [5] was inactive.
With `C/C(=N\NC(=O)c1ccc(-c2ccc([N+](=O)[O-])cc2)o1)c1ccc(C)cc1`, in the test with Rattus norvegicus [2], the Time was 2.5 h. Also, the outcome in the test with Rattus norvegicus [6] and in the test with Rattus norvegicus [9] was Active. Besides, the outcome in the test on Rattus norvegicus [7] and in the test with Rattus norvegicus [8] was inactive.
`Nc1nnc(-c2cccc(Cl)c2Cl)c(N)n1`: the result in the test with Rattus norvegicus [10] and with Rattus norvegicus [6] was Active.
With `NC(=O)N1c2ccccc2C=Cc2ccccc21` [CARBAMAZEPINE], the Time in the test on Rattus norvegicus [2] came to 2.5 h. Besides, the result in the test with Rattus norvegicus [11] and in the test on Rattus norvegicus [12] was Active.
Consider `NCC1(CC(=O)O)CCCCC1` [GABAPENTIN], for which the Time in the test with Rattus norvegicus [1] was 1 h; with Rattus norvegicus [2], 2.5 h. Also, the result in the test with Rattus norvegicus [13] was Active.
For the compound `COc1ccc(/C=N/NC(=O)c2ccc(-c3ccc([N+](=O)[O-])cc3)o2)cc1`, the Time in the test with Rattus norvegicus [1] and with Rattus norvegicus [3] was 2.5 h throughout. Besides, the outcome in the test with Rattus norvegicus [14] and with Rattus norvegicus [4] was Active. The “fold change (FC)” value in the test with Rattus norvegicus [15] is listed as 5. The result with Rattus norvegicus [16] was inactive.
Regarding `C/C(=N\NC(=O)c1ccc(-c2ccc([N+](=O)[O-])cc2)o1)c1ccc(Br)cc1`, the Time with Rattus norvegicus [2] and with Rattus norvegicus [3] was 2.5 h in each case. Besides, the result with Rattus norvegicus [6] was Active. The outcome in the test on Rattus norvegicus [7] and in the test on Rattus norvegicus [5] was inactive.
Consider `C/C(=N\NC(=O)c1ccc(-c2ccc([N+](=O)[O-])cc2)o1)c1ccc(F)cc1`, for which the result in the test on Rattus norvegicus [7], in the test with Rattus norvegicus [16], in the test with Rattus norvegicus [8] and in the test on Rattus norvegicus [5] was inactive.
With `O=C(N/N=C/c1ccc(Br)cc1)c1ccc(-c2ccc([N+](=O)[O-])cc2)o1`, the Time with Rattus norvegicus [1] and with Rattus norvegicus [3] was 2.5 h each time. The result with Rattus norvegicus [14] and with Rattus norvegicus [17] was Active. Besides, in the test on Rattus norvegicus [16], the outcome was inactive. Also, the “fold change (FC)” value in the test on Rattus norvegicus [18] was determined as 6.
With `C/C(=N\NC(=O)c1ccc(-c2ccc([N+](=O)[O-])cc2)o1)c1ccccc1`, the Time in the test on Rattus norvegicus [1], in the test on Rattus norvegicus [2] and in the test on Rattus norvegicus [3] was 2.5 h throughout. For the same compound, the result in the test with Rattus norvegicus [4], in the test on Rattus norvegicus [6] and with Rattus norvegicus [19] was Active.
Take `Cc1ccc(/C=N/NC(=O)c2ccc(-c3ccc([N+](=O)[O-])cc3)o2)cc1`: the outcome in the test with Rattus norvegicus [7], in the test with Rattus norvegicus [16] and in the test on Rattus norvegicus [8] was inactive. For the same compound, in the test with Rattus norvegicus [5], the outcome was Active.
With `COc1cc(/C=N/NC(=O)c2ccc(-c3ccc([N+](=O)[O-])cc3)o2)ccc1O`, the Time in the test with Rattus norvegicus [1] and with Rattus norvegicus [2] was 2.5 h throughout. Also, the outcome in the test on Rattus norvegicus [4] and in the test with Rattus norvegicus [20] was Active. Besides, the result in the test on Rattus norvegicus [8] and with Rattus norvegicus [5] was inactive.
